Patent publication US20090029983A1, “NOVEL HETEROCYCLIC COMPOUNDS HAVING ANTI-HBV ACTIVITY” (priority 2005, published 2009)

Test system: HBV
Assay: HBV screening assay (viral DNA in baculovirus-HBV transduced HepG2 cells)
Assay type: cell-based
Conditions: Hepatitis B virus, HepG2, 72 h, read-out: EC50 (antiviral activity), HBV-transduced HepG2 cells, three days with compound, viral DNA by ELISA
Outline: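 HepG2 cells transduced with baculovirus carrying the HBV genome were grown 3 days at 37 °C with compound in EMEM/10% FBS; viral DNA from lysates captured by solid-phase hybridisation with digoxigenin probes and read by anti-digoxigenin HRP ELISA. EC50 from titration curves; CC50 from non-transduced HepG2 after 3 days by MTS viability.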

Row | Structure (SMILES) | EC50 [µM]
1 | CC1CCc2c1nc1sc(C(N)=O)c(N)c1c2-c1cccs1 (stereo not drawn) [Compound 37, 3-Amino-7-methyl-4-thiophen-2-yl-6,7-dihydro-5H-cyclopenta[b]thieno[3,2-e]pyridine-2-carboxylic acid amide] | < 1
2 | CN1CCCC1CCNC(=O)CC1CCc2c1nc1sc(C(N)=O)c(N)c1c2-c1cccs1 (stereo not drawn) [Compound 55, 3-Amino-7-{[2-(1-methyl-pyrrolidin-2-yl)-ethylcarbamoyl]-methyl}-4-thiophen-2-yl-6,7-dihydro-5H-cyclopenta[b]thieno[3,2-e]pyridine-2-carboxylic acid amide] | > 10
3 | NC(=O)c1sc2nc3c(c(-c4cccs4)c2c1N)CN(C(=S)NC1CC1)C3 [Compound 91, 3-Amino-6-cyclopropylthiocarbamoyl-4-thiophen-2-yl-6,7-dihydro-5H-1-thia-6,8-diaza-s-indacene-2-carboxylic acid amide] | 1 to 10
4 | CCOC(=O)CN1Cc2nc3sc(C(N)=O)c(N)c3c(-c3cccs3)c2C1 [Compound 18, 3-Amino-6-carbethoxymethyl-4-thiophen-2-yl-6,7-dihydro-5H-1-thia-6,8-diaza-s-indacene-2-carboxylic acid amide] | > 10
5 | NC(=O)c1sc2nc3c(c(-c4cccs4)c2c1N)CN(Cc1ccccc1)C3 [Compound 21, 3-Amino-6-benzyl-4-thiophen-2-yl-6,7-dihydro-5H-1-thia-6,8-diaza-s-indacene-2-carboxylic acid amide] | 1 to 10
6 | NC(=O)c1sc2nc3c(c(-c4cccs4)c2c1N)CN(C(=O)Nc1ccccc1)C3 [Compound 96, 3-Amino-4-thiophen-2-yl-5,7-dihydro-1-thia-6,8-diaza-s-indacene-2,6-dicarboxylicacid 2-amide 6-phenylamide] | > 10
7 | NC(=O)c1sc2nc3c(c(-c4cccs4)c2c1N)CN(CCCN1CCN(c2ncccn2)CC1)C3 [Compound 25, 3-Amino-6-[3-(4-pyrimidin-2-yl-piperazin-1-yl)-propyl]-4-thiophen-2-yl-6,7-dihydro-5H-1-thia-6,8-diaza-s-indacene-2-carboxylicacid amide] | > 10
8 | CC(C)(C)OC(=O)N1Cc2nc3sc(C(N)=O)c(N)c3c(-c3cccs3)c2C1 [Compound 1, 3-Amino-6-tert-butyloxycarbonyl-4-thiophen-2-yl-6,7-dihydro-5H-1-thia-6,8-diaza-s-indacene-2-carboxylic acid amide] | > 10
9 | NC(=O)c1sc2nc3c(c(-c4cccs4)c2c1N)CCC3CC(=O)NCC(O)c1ccccc1 (stereo not drawn) [Compound 39, 3-Amino-7-[(2-hydroxy-2-phenyl-ethylcarbamoyl)-methyl]-4-thiophen-2-yl-6,7-dihydro-5H-cyclopenta[b]thieno[3,2-e]pyridine-2-carboxylic acid amide] | > 10
10 | CC(C)CN1Cc2nc3sc(C(N)=O)c(N)c3c(-c3cccs3)c2C1 [Compound 14, 3-Amino-6-isobutyl-4-thiophen-2-yl-6,7-dihydro-5H-1-thia-6,8-diaza-s-indacene-2-carboxylic acid amide] | > 10
11 | CC(CO)CN1Cc2nc3sc(C(N)=O)c(N)c3c(-c3cccs3)c2C1 (stereo not drawn) [Compound 13, 3-Amino-6-(3-hydroxy-2-methyl-propyl)-4-thiophen-2-yl-6,7-dihydro-5H--thia-6,8-diaza-s-indacene-2-carboxylic acid amide] | 1 to 10
12 | CC1CCc2c(nc3sc(C(N)=O)c(N)c3c2-c2cccs2)C1 (stereo not drawn) [Compound 74, 3-Amino-7-methyl-4-thiophen-2-yl-5,6,7,8-tetrahydro-thieno[2,3-b]quinoline-2-carboxylic acid amide] | > 10
13 | NC(=O)c1sc2nc3c(c(-c4cccs4)c2c1N)CCC1CCCCC31 (stereo not drawn) [Compound 107, 8-Amino-7-thiophen-2-yl-1,2,3,4,4a,5,6,11b-octahydro-10-thia-11-aza-cyclopenta[b]phenanthrene-9-carboxylic acid amide] | > 10
14 | Cc1cc(C)cc(NC(=S)N2Cc3nc4sc(C(N)=O)c(N)c4c(-c4cccs4)c3C2)c1 [Compound 92, 3-Amino-6-(3,5-dimethyl-phenylthiopcarbamoyl)-4-thiophen-2-yl-6,7-dihydro-5H-1-thia-6,8-diaza-s-indacene-2-carboxylic acid amide] | > 10
15 | NC(=O)c1sc2nc3c(c(-c4cccs4)c2c1N)CCCC3Cc1ccccc1 (stereo not drawn) [Compound 64, 3-Amino-8-benzyl-4-thiophen-2-yl-5,6,7,8-tetrahydro-thieno[2,3-b]uinoline-2-carboxylic acid amide] | > 10
16 | NC(=O)c1sc2nc3c(c(-c4cccs4)c2c1N)CN(CCN1C(=O)c2ccccc2C1=O)C3 [Compound 19, 3-Amino-6-[2-(1,3-dioxo-1,3-dihydro-isoindol-2-yl)-ethyl]-4-thiophen-2-yl-6,7-dihydro-5H-1-thia-6,8-diaza-s-indacene-2-carboxylic acid amide] | > 10
17 | NC(=O)c1sc2nc3c(c(-c4cccs4)c2c1N)CN(C(=S)NCCCN1CCOCC1)C3 [Compound 94, 3-Amino-6-(3-morpholin-4-yl-propylthiocarbamoyl)-4-thiophen-2-yl-6,7-dihydro-5H-1-thia-6,8-diaza-s-indacene-2-carboxylic acid amide] | > 10
18 | NC(=O)c1sc2nc3c(c(-c4cccs4)c2c1N)CN(C(=S)Nc1cc(Cl)cc(Cl)c1)C3 [Compound 89, 3-Amino-6-(3,5-dichloro-phenylthiocarbamoyl)-4-thiophen-2-yl-6,7-dihydro-5H-1-thia-6,8-diaza-s-indacene-2-carboxylic acid amide] | > 10
19 | NC(=O)c1sc2nc3c(c(-c4cccs4)c2c1N)CN(CC1CCCCO1)C3 (stereo not drawn) [Compound 4, 3-Amino-6-(tetrahydro-pyran-2-ylmethyl)-4-thiophen-2-yl-6,7-dihydro-5H-1-thia-6,8-diaza-s-indacene-2-carboxylic acid amide] | > 10
20 | CCCCCCCC1CCc2c1nc1sc(C(N)=O)c(N)c1c2-c1cccs1 (stereo not drawn) [Compound 60, 3-Amino-7-heptyl-4-thiophen-2-yl-6,7-dihydro-5H-cyclopenta[b]thieno[3,2-e]pyridine-2-carboxylic acid amide] | > 10

Test system: HBV
Assay: not given
Conditions: HBV treatment, background statement; cited from earlier work

Row | Structure (SMILES) | sustained viral response rate
21 | CC(C)(C)C(=O)OCOP(=O)(COCCn1cnc2c(N)ncnc21)OCOC(=O)C(C)(C)C [adefovir dipivoxil, 9-(2-((-bis((pivaloyloxy)methoxy)phosphinyl)methoxy)ethyl)adenine] | below 20%
